What all share (format): in vivo
One test concerns corn (Zea mays). Kind of test: Test A postemergence. The settings on record: Zea mays, post-emergence, 240 h, 125 g ai/ha, postemergence, visual injury rating after approximately 10 d; read-out: Corn plant response rating (0 to 100 scale, 0 no effect, 100 complete control). Put shortly: (§1)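 Each rating is a visual injury score from 0 to 100 given about 10 d after treatment, judged against untreated controls kept alongside in the greenhouse. In loam soil–sand blend, seeds got a preemergence directed soil spray, while postemergence plants were 2 to 10 cm tall at spraying.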

For test [1], the system named is pigweed (Amaranthus retroflexus). Kind of test: Test A postemergence. The settings on record: Amaranthus retroflexus, post-emergence, 240 h, 125 g ai/ha, postemergence, visual injury rating after approximately 10 d; read-out: Pigweed plant response rating (0 to 100 scale, 0 no effect, 100 complete control). The essentials: as §1
The subject of test [2] is giant foxtail (Setaria faberii). Kind of test: Test A postemergence. The settings on record: Setaria faberi, post-emergence, 240 h, 125 g ai/ha, postemergence, visual injury rating after approximately 10 d; read-out: Foxtail, Giant plant response rating (0 to 100 scale, 0 no effect, 100 complete control). Put shortly: as §1
In test [3] the test system is ryegrass, Italian (Italian ryegrass, Lolium multiflorum). Kind of test: Test A postemergence. The note with it: Lolium multiflorum, post-emergence, 240 h, 125 g ai/ha, postemergence, visual injury rating after approximately 10 d; read-out: Ryegrass, Italian plant response rating (0 to 100 scale, 0 no effect, 100 complete control). Put shortly: as §1
Test [4] deals with Galium (catchweed bedstraw, Galium aparine). In words: Test A postemergence. The settings on record: Galium, post-emergence, 240 h, 125 g ai/ha, postemergence, visual injury rating after approximately 10 d; read-out: Galium plant response rating (0 to 100 scale, 0 no effect, 100 complete control). Put shortly:
as §1

Test [5] concerns Kochia (Kochia scoparia). Kind of test: Test A postemergence. The note with it: Bassia scoparia, post-emergence, 240 h, 125 g ai/ha, postemergence, visual injury rating after approximately 10 d; read-out: Kochia plant response rating (0 to 100 scale, 0 no effect, 100 complete control). The essentials:
as §1

The test system of test [6] is ragweed (common ragweed, Ambrosia elatior). In words: Test A postemergence. The settings on record: Ambrosia artemisiifolia, post-emergence, 240 h, 125 g ai/ha, postemergence, visual injury rating after approximately 10 d; read-out: Ragweed plant response rating (0 to 100 scale, 0 no effect, 100 complete control). The essentials: as §1
The test system of test [7] is wheat (Triticum aestivum). Kind of test: Test A postemergence. The settings on record: Triticum aestivum, post-emergence, 240 h, 125 g ai/ha, postemergence, visual injury rating after approximately 10 d; read-out: Wheat plant response rating (0 to 100 scale, 0 no effect, 100 complete control). The essentials:
as §1

For test [8], the system named is barnyardgrass (Echinochloa crus-galli). In words: Test A postemergence. The note with it: Echinochloa crus-galli, post-emergence, 240 h, 125 g ai/ha, postemergence, visual injury rating after approximately 10 d; read-out: Barnyardgrass plant response rating (0 to 100 scale, 0 no effect, 100 complete control). Put shortly:
as §1

In test [9] the test system is pigweed (Amaranthus retroflexus). In words: Test A preemergence. The settings on record: Amaranthus retroflexus, pre-emergence, 240 h; for pest or weed control at 125 g/ha: 125 g ai/ha, preemergence, 0 to 100 scale where 0 is no effect and 100 is complete control, read-out: Pigweed plant response rating; for pest or weed control at 500 g/ha: 500 g ai/ha, Preemergence, visual injury vs untreated controls after approximately 10 d, read-out: Pigweed plant response rating (0 to 100 scale where 0 is no effect and 100 is complete control).

Test [10] has as its system giant foxtail (Setaria faberii). In words: Test A preemergence. The settings on record: Setaria faberi, pre-emergence, 240 h; for pest or weed control at 125 g/ha: 125 g ai/ha, preemergence, 0 to 100 scale where 0 is no effect and 100 is complete control, read-out: Foxtail, Giant plant response rating; for pest or weed control at 500 g/ha: 500 g ai/ha, Preemergence, visual injury vs untreated controls after approximately 10 d, read-out: Foxtail, Giant plant response rating (0 to 100 scale where 0 is no effect and 100 is complete control). Put shortly: as §1

Test [11] has as its system ryegrass, Italian (Italian ryegrass, Lolium multiflorum). In words: Test A preemergence. The settings on record: Lolium multiflorum, pre-emergence, 240 h; for pest or weed control at 125 g/ha: 125 g ai/ha, preemergence, 0 to 100 scale where 0 is no effect and 100 is complete control, read-out: Ryegrass, Italian plant response rating; for pest or weed control at 500 g/ha: 500 g ai/ha, Preemergence, visual injury vs untreated controls after approximately 10 d, read-out: Ryegrass, Italian plant response rating (0 to 100 scale where 0 is no effect and 100 is complete control). The essentials: as §1

Test [12] has as its system Kochia (Kochia scoparia). In words: Test A preemergence. The note with it: Bassia scoparia, pre-emergence, 240 h; for pest or weed control at 125 g/ha: 125 g ai/ha, preemergence, 0 to 100 scale where 0 is no effect and 100 is complete control, read-out: Kochia plant response rating; for pest or weed control at 500 g/ha: 500 g ai/ha, Preemergence, visual injury vs untreated controls after approximately 10 d, read-out: Kochia plant response rating (0 to 100 scale where 0 is no effect and 100 is complete control). The essentials: as §1

For test [13], the system named is ragweed (common ragweed, Ambrosia elatior). Kind of test: Test A preemergence. The settings on record: Ambrosia artemisiifolia, pre-emergence, 240 h; for pest or weed control at 125 g/ha: 125 g ai/ha, preemergence, 0 to 100 scale where 0 is no effect and 100 is complete control, read-out: Ragweed plant response rating; for pest or weed control at 500 g/ha: 500 g ai/ha, Preemergence, visual injury vs untreated controls after approximately 10 d, read-out: Ragweed plant response rating (0 to 100 scale where 0 is no effect and 100 is complete control). The essentials: as §1

For test [14], the system named is barnyardgrass (Echinochloa crus-galli). Kind of test: Test A preemergence. The settings on record: Echinochloa crus-galli, pre-emergence, 240 h; for pest or weed control at 125 g/ha: 125 g ai/ha, preemergence, 0 to 100 scale where 0 is no effect and 100 is complete control, read-out: Barnyardgrass plant response rating; for pest or weed control at 500 g/ha: 500 g ai/ha, Preemergence, visual injury vs untreated controls after approximately 10 d, read-out: Barnyardgrass plant response rating (0 to 100 scale where 0 is no effect and 100 is complete control). Put shortly:
as §1

As to `CSc1ccccc1NC(=O)[C@H]1C(=O)N(C)C[C@@H]1c1cc(F)c(F)c(F)c1` [Compound 866], the plant injury at 125 g/ha with corn (Zea mays) is 30%; in test [7] it was 0%. Further, the pest or weed control at 125 g/ha in test [1] turned out to be 0%; in test [2], 70%; in [3], 20%; in test [4], 20%; in the test on Kochia (Kochia scoparia) [5], 20%; in test [6] it was 0%. Besides, the pest or weed control at 125 g/ha in test [8] is 60%; in test [9], 0%; in [10], 90%; in test [11], 50%; in the test with Kochia (Kochia scoparia) [12], 20%; in test [13], 0%. Moreover, the pest or weed control at 125 g/ha in test [14] was 30%. For the same compound, the pest or weed control at 500 g/ha stood at 50% in [9]; 90% in [10]; 70% in test [11]; 80% in the test on Kochia (Kochia scoparia) [12]; 30% in test [13]; 90% in test [14].

`CN1C[C@H](c2cc(F)c(C(F)(F)F)c(F)c2)[C@@H](C(=O)Nc2ccccc2S(C)(=O)=O)C1=O` [Compound 900]: the plant injury at 125 g/ha (in the test on corn (Zea mays); in test [7]) was 50% throughout. Further, the pest or weed control at 125 g/ha came out at 50% in [1]; 80% in [2]; 40% in test [3]; 20% in test [4]; 30% with Kochia (Kochia scoparia) [5]; 10% in test [6]. For the same compound, the pest or weed control at 125 g/ha in test [8] was determined as 80%; in test [9] it was 80%; in [10], 90%; in test [11] it was 60%; with Kochia (Kochia scoparia) [12] it was 90%; in [13], 50%. Further, in test [14], the pest or weed control at 125 g/ha is 90%. In addition, the pest or weed control at 500 g/ha was found to be 90% in test [9]; 90% in [10]; 60% in test [11]; 90% in the test on Kochia (Kochia scoparia) [12]; 80% in test [13]; 90% in test [14].

(Values after patent US12077503B2, “Substituted cyclic amides and their use as herbicides” (FMC CORPORATION, priority 2015, dated 2024).)
